Test results reported in PubChem BioAssay (NCI).
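Protocol summary: plate cells (96-well), add compound at 5 concentrations, incubate 48 h, interpolate endpoints linearly. GI50 is the concentration that inhibits growth by half. Definition used: TGI = concentration required for complete inhibition of growth.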

Assays:
Assay in all cases: growth of human tumour cells (NCI), 48 h
CCRF-CEM leukemia = system: CCRF-CEM leukemia
HT29 colon = system: HT29 colon
LOX IMVI melanoma = system: LOX IMVI melanoma
NCI/ADR-RES ovarian = system: NCI/ADR-RES ovarian
OVCAR-8 ovarian = system: OVCAR-8 ovarian
SK-MEL-2 melanoma = system: SK-MEL-2 melanoma
SK-MEL-28 melanoma = system: SK-MEL-28 melanoma
SN12C renal = system: SN12C renal
SNB-19 CNS = system: SNB-19 CNS
UO-31 renal = system: UO-31 renal

SMILES | TGI (CCRF-CEM leukemia) [µM] | TGI (HT29 colon) [µM] | TGI (LOX IMVI melanoma) [µM] | TGI (NCI/ADR-RES ovarian) [µM] | TGI (OVCAR-8 ovarian) [µM] | TGI (SK-MEL-2 melanoma) [µM] | TGI (SK-MEL-28 melanoma) [µM] | TGI (SN12C renal) [µM] | TGI (SNB-19 CNS) [µM] | TGI (UO-31 renal) [µM] | GI50 (CCRF-CEM leukemia) [µM] | GI50 (HT29 colon) [µM] | GI50 (LOX IMVI melanoma) [µM] | GI50 (NCI/ADR-RES ovarian) [µM] | GI50 (OVCAR-8 ovarian) [µM] | GI50 (SK-MEL-2 melanoma) [µM] | GI50 (SK-MEL-28 melanoma) [µM] | GI50 (SN12C renal) [µM] | GI50 (SNB-19 CNS) [µM] | GI50 (UO-31 renal) [µM]
CC(=O)SC(C[N+](=O)[O-])c1ccccc1 (centres undefined) | 19.9 | 4.22 | 3.34 | 55.1 | 26 | 50.3 | 11.1 | 27.3 | 30.9 | 5.37 |  |  |  |  |  |  |  |  |  | 
COc1cc(Cl)c(C)cc1NC(=O)c1cc2ccccc2cc1O | 19.6 | 8.34 | 10.8 | 9.04 | 10.4 | 4.01 | 22.8 | 10.1 | 20.7 | 10.6 | 3.11 | 2.88 | 2.49 | 2.55 | 2.7 | 1.7 | 3.77 | 1.68 | 4.34 | 1.29
COc1ccc(-n2cc(-c3ccc(F)cc3)[nH]c2=O)cc1OC | 34.3 | > 100 | > 100 | > 100 | > 100 | > 100 | > 100 | > 100 | > 100 | > 100 | 18.2 | > 100 | > 100 | > 100 | 82.1 | > 100 | > 100 | 58 | > 100 | > 100
O=c1c(Br)ccc(Br)cc1Br | 1.58 | 4.45 | 2.35 | 7.16 | 8.78 | 5.85 | 5.83 | 4.68 | 25.2 | 2.95 | 0.317 | 1.77 | 0.897 | 2.56 | 2.75 | 2.39 | 2.55 | 2.11 | 11.7 | 1.51
O=C(Nc1ccc(-n2cc(-c3ccncc3)c(-c3ccc(Cl)c(O)c3)n2)cc1)c1ccc(Cl)c(C(F)(F)F)c1 | > 100 | 3.05 | 1.58 | > 100 | > 46 | 4.69 | 3.6 | > 83.6 | > 100 | 2.42 | 1.18 | 0.838 | 0.344 | 2.77 | 2.82 | 1.61 | 1.18 | 4.39 | 4.16 | 0.684
c1ccc2c(c1)-c1nc3ccccc3cc1C2N1CCOCC1 (centres undefined) | > 100 | > 100 | > 100 | > 100 | > 100 | > 100 | > 100 | > 100 | > 100 |  |  |  |  |  |  |  |  |  |  | 
Nc1ncnc2c1c(-c1ccc(Oc3ccccc3)cc1)nn2C[C@H]1SSC[C@H]1O | > 100 | 1.48 | 0.523 | 4.87 | 3.87 | 0.435 | 0.0793 | 4.67 | 20.1 | 2.77 | 0.054 | 0.179 | 0.0703 | 1.77 | 1.09 | 0.16 | 0.0258 | 1.4 | 0.51 | 0.468
O=C(O)c1cccc(F)c1C(=O)c1ccc2ccccc2c1 | > 100 | > 100 | > 100 | > 100 | > 100 | > 100 | > 100 | > 100 | > 100 | > 100 |  |  |  |  |  |  |  |  |  | 
O=c1c(-c2nc3ccccc3[nH]2)cc2ccccc2n1Cc1cn(Cc2ccc(F)cc2)nn1 | > 100 | 96.9 | > 100 | 19.2 | > 100 | 10.2 |  | > 100 | 25.2 | > 100 | 0.135 | 0.041 | 0.084 | 1.28 | 0.139 | 0.348 |  | 0.203 | 0.305 | 0.327
Nc1c2c(c(O)c3c1=C(CO)C=N3)=NCCS2=O (centres undefined) | 13.2 | 4.46 | 4.03 | 8.99 | 4.78 | 3.8 |  | 3.57 | 3.07 | 3.5 | 1.65 | 1.78 | 1.58 | 2.51 | 1.99 | 1.45 |  | 1.66 | 1.59 | 1.68
COc1ccc(/C=C/c2cnnc3ccccc23)cc1OC | > 10 | > 10 | > 10 | > 10 | > 10 | > 10 | > 10 | > 10 | > 10 |  |  |  |  |  |  |  |  |  |  | 
